# Measured values as given in patent EP1543832A2, “Use of trans-4[4-(3-chloro-4-methoxy-benzylamino) benzothieno[2,3-d]pyrimidin-2-yl]-cyclohexanecarboxylic acid in the treatment of extrapyramidal movement disorders” (MERCK PATENT GmbH, priority 2003, dated 2005).
# Where a name gives a salt, the structure may show the parent alone.
# Columns and labels:
# [1] = system: advanced idiopathic Parkinson's disease complicated by "peak-dose" dyskinesia; assay: Double-blind cross-over study, peak-dose dyskinesia after l-dopa challenge in advanced idiopathic Parkinson's disease; type: in vivo, patients; conditions: first hour in the "on" state after l-dopa challenge; add-on 2.5 to 10 mg b.i.d. versus placebo
# Excerpt: A typical study to investigate the efficacy of the compounds according to the invention for adverse effects in Parkinson's disease is described in the following. 40 patients of either sex with advanced idiopathic Parkinson's disease complicated by "peak-dose" dyskinesia participate in a double-blind, cross-over study. The main inclusion criteria are Hoehn & Yahr stage ≥ 2.5 (lit.: Hoehn H.M. et al, Neurology 1967; 17: 427-442), aged 40-75 years, symptom duration of at least 5 years, and a I-dopa treatment duration of at least 3 years. trans-4-[4-(3-chloro-4-methoxybenzylamino)-benzothieno-[2,3-d]pyrimidin-2-yl]cyclohexanecarboxylic acid sodium or ethanolamine salt or placebo is administered as "add on" to the conventional Parkinson treatment; which is maintained unchanged during the whole study. The dose of blinded medication is titrated over a period of 3 weeks in a range from 2.5 to 10 mg b.i.d. Then the medication is kept constant for 1 week. Before the start of titration and at the end of the treatment period a I-dopa challenge is performed according to P. Damier et al. (Movement Disord,1999, 14 (Suppl. 1), 54-59) using video recording. The main outcome measure of the protocol is the mean score for dyskinesia during the first hour in the "on" state after I-dopa challenge. […]
# tardive dyskinesia = assay: Double-blind cross-over add-on study in tardive dyskinesia (AIMS); type: in vivo, schizophrenic (DSM-III-R) inpatients; conditions: add-on to antipsychotic treatment, 2.5 to 20 mg b.i.d., compared with placebo period
# Excerpt: Tardive dyskinesia is a common adverse effect of long-term treatment with neuroleptics. A typical study to investigate the efficacy of the compounds according to the invention in tardive dyskinesia is described in the following. 32 schizophrenic (DSM-III-R) inpatients aged 25 - 60 years on long-term stable antipsychotic treatment (duration of at least 5 years) entered the study. Trans-4-[4-(3-chloro-4-methoxybenzylamino)-benzothieno-[2,3-d]pyrimidin-2-yl]cyclohexanecarboxylic acid sodium or ethanolamine salt or placebo is administered as "add on" to the antipsychotic treatment, which is kept constant during the whole study. The dose of blinded medication is titrated over a period of 3 weeks in a range from 2.5 to 20 mg b.i.d. Then the medication is maintained under double-blind conditions for 2 weeks. After a 2-week wash-out period, the test drugs are crossed over. Assessments of tardive dyskinesia by means of the Abnormal Involuntary Movement Scale (AIMS, see obove) and of Parkinsonian extrapyramidal side effects (UPDRS, see above) are made pretreatment and posttreatment.
# MSA patients = assay: Placebo-controlled cross-over add-on study in MSA patients (UPDRS); type: in vivo; conditions: add-on 2.5 to 20 mg b.i.d. versus placebo
# Excerpt: A typical study to investigate the efficacy of the compounds according to the invention in MSA patients encompasses 30 patients of either sex with a symptom duration of at least 5 years and a significant reduction of central dopamine receptors in positron emission tomography (PET) scan. The study design is similar to that described above for Parkinson's disease. Trans-4-[4-(3-chloro-4-methoxybenzylamino)-benzothieno-[2,3-d]pyrimidin-2-yl]cyclohexanecarboxylic acid sodium or ethanolamine salt or placebo is titrated as "add on" to the conventional treatment (dose range 2.5 to 20 mg b.i.d.). Before the start of titration and at the end of the treatment period a complete UPDRS assessment is performed in each patient (primary outcome measure). After a 2-week wash-out period the two study arms are crossed over and the protocol is repeated.
# [2] = system: idiopathic Parkinson's disease; assay: Double-blind add-on study in idiopathic Parkinson's disease (UPDRS); type: in vivo, patients; conditions: add-on 2.5 to 10 mg b.i.d. versus placebo
# Excerpt: A typical study to investigate the efficacy of the compounds according to the invention in the treatment of idiopathic Parkinson's disease is described in the following. 180 patients of either sex with idiopathic Parkinson's disease participate in a double-blind study. The main inclusion criteria are Hoehn & Yahr stage ≥ 2.0 (Hoehn H.M. et al, Neurology 1967; 17: 427-442), aged 50-80 years, symptom duration of at least 5 years. Trans-4-[4-(3-chloro-4-methoxybenzylamino)-benzothieno-[2,3-d]pyrimidin-2-yl]cyclohexanecarboxylic acid or placebo is administered as "add on" to the conventional Parkinson treatment, which is maintained unchanged during the whole study. The dose of blinded medication is titrated over a period of 4 weeks in a range from 2.5 to 10 mg b.i.d. Then the medication is kept constant for 1 week. Before the start of titration, at the end of the treatment period and 2 weeks after the end of the tiration period an assessment is performed in each patients using the unified Parkinson's disease rating scale (UPDRS part I to V according to S. Fahn et al., in: Recent developments in Parkinson's disease, vol. 2, MacMillan health information 1987, 153-163). […]
compound,measurement,setting,value
"COc1ccc(CNc2nc([C@H]3CC[C@H](C(=O)O)CC3)nc3sc4ccccc4c23)cc1Cl [trans-4-[4-(3-chloro-4-methoxybenzylamino)-benzothieno-[2,3-d]pyrimidin-2-yl]cyclohexanecarboxylic acid sodium or ethanolamine salt]",mean dyskinesia scores,[1],significant clinical improvement
same,AIMS scores,tardive dyskinesia,significantly lower than during placebo period
same,UPDRS,MSA patients,significant clinical improvement
same,UPDRS scores,[2],significant clinical improvement
